According to patent publication US11524010B2, “Substituted quinazoline sulfonamides as thioredoxin interacting protein (TXNIP) inhibitors” (SOUTHERN RESEARCH INSTITUTE, priority 2017, dated 2022):

Legend:
TXNIP = test: Inhibition of glucose-induced endogenous TXNIP expression in INS-1 cells (qRT-PCR); assay type: cell-based, Rat; details: Rattus norvegicus, INS1, 24 h, 25 mM glucose; for inhibition at 1.5 µM: 1.5 μM compound; for inhibition at 12.5 µM: 12.5 μM compound
Procedure: The Rat INS-1 cell line was obtained from UAB and maintained in RPMI-1640 (Invitrogen #11875) supplemented with 10% fetal bovine serum (FBS), 100 U/ml penicillin and […] streptomycin, 10 mM HEPES, 1 mM Sodium Pyruvate, 50 μM 2-Mercaptoethanol, and 11.1 mM Glucose in a humidified incubator with a 5% C02 atmosphere at 37° C. 4×10^4 cells per well were seeded to 96-well plate and incubated at 37° C. overnight. A subset of the cells were then cultured in medium with 5 mM Glucose for 24 hrs and then treated in medium with 25 mM glucose with or without compounds to be tested for another 24 hrs.
For the primary high throughput screening (HTS) assay, stably transfected, monoclonal INS-1 cells were split using Trypsin (2 ml per T75 flask) and seeded at a density of 10^4/well in a 384-well plate and incubated overnight at low, 5 mM glucose. The next day, the medium was changed to high glucose (25 mM) or high glucose plus the small molecules to be tested and luciferase assays were performed 24 h later. […] For secondary screens, total RNA was extracted from 96-well cultured cells using RNeasy 96 kit (Qiagen #74181) following the manufacturer's protocol using spin technology. Then a one-step qRT-PCR amplification was performed using QuantiFast SYBR Green RT-PCR kit (Qiagen #204154) and was carried out in a 10 μl reaction which consisted of 2 μl RNA, 0.5 μM each of primers (Rat TXNIP 5′ primer: […] (SEQ ID NO:1) and Rat TXNIP 3′ primer: […] (SEQ ID NO:2); Or Rat 18S rRNA 5′ primer: […] (SEQ ID NO:3) and Rat 18S rRNA 3′ primer: […]) (SEQ ID NO:4), 5 μl 2×SYBR Green Master Mix, 0.1 μl 10× QuantiFast RT Mix. The SYBR Green assay was performed using a LightCycler 480 II (Roche Applied Science) with an initial incubation at 50° C. for 10 min for RT followed by denaturation at 95° C. for 5 min. Forty cycles of amplification were performed using a thermal cycling profile of 95° C. for 10s, 60° C. for 30 s. Subsequently, a melting curve was recorded by holding at 95° C. for 60 s, cooling to 60° C. for 60 s, and then heating at 0.11° C./s up to 95° C. The data was collected and analyzed using the LightCycler 480 Software Release 1.5.0 SP3. The relative amount of TXNIP mRNA was normalized to 18 s rRNA level as a housekeeping gene, and the data was analyzed according to the 2^−ΔΔCT method (1). The transformed data was expressed as % inhibition and compound IC50 calculated by a 4-parameter logistic fit of the data using GraphPad Prism 7.

[1] = INS-1 cell viability (Cell Titer-Glo, ATP); assay type: cell-based, Rat; details: rat, INS-1 cells, 72 hrs treatment
Procedure: INS-1 cell viability was determined based on quantification of ATP using Cell Titer-Glo Luminescent Cell Viability Assay kit (Promega #G7572), which indicates the presence of metabolically active cells. Briefly, INS-1 cells were seeded into 96-well plates at a cell density of 4.5×10^4 and 3.5×10^4 cells per well and incubated overnight at 37° C. with 5% CO2. On the following day, cells were treated with compounds for 24 hrs and 72 hrs respectively. Cell Titer-Glo reagent was added to the cells and Luminescence was acquired on Synergy 4 Reader ([…]).

| Structure (SMILES) | inhibition at 1.5 µM (TXNIP) | inhibition at 12.5 µM (TXNIP) | CC50 at 72 h [1] |
| --- | --- | --- | --- |
| CS(=O)(=O)NCC1CCCN(c2ncnc3c(Cl)cc(F)cc23)C1 (stereo not drawn) [Compound 10, N-((1-(8-chloro-6-fluoroquinazolin-4-yl)piperidin-3-yl)methyl)methanesulfonamide] | 23% | 51% | > 100 µM |
| CS(=O)(=O)NCC1CCCN(c2ncnc3cc(C#N)c(F)cc23)C1 (stereo not drawn) [Compound 20, N-((1-(7-cyano-6-fluoroquinazolin-4-yl)piperidin-3-yl)methyl)methanesulfonamide] | 19% | 30% | > 100 µM |
| CC(C)N(CC1CCCN(c2ncnc3ccccc23)C1)S(C)(=O)=O (stereo not drawn) [Compound 40, N-isopropyl-N-((1-(quinazolin-4-yl)piperidin-3-yl)methyl)methanesulfonamide] | 14% | 46% | 70 µM |
| CS(=O)(=O)NCC1(F)CCCN(c2ncnc3cc(F)c(C#N)cc23)C1 (stereo not drawn) [Compound 50, N-((1-(6-cyano-7-fluoroquinazolin-4-yl)-3-fluoropiperidin-3-yl)methyl)methanesulfonamide] | 2% | 18% | > 100 µM |
| CS(=O)(=O)NCC1CCCN(c2ncnc3cc(F)c(F)cc23)C1 (stereo not drawn) [Compound 7, N-((1-(6,7-difluoroquinazolin-4-yl)piperidin-3-l)methyl)methanesulfonamide] | 40% | 54% | > 100 µM |
| CS(=O)(=O)NCC1CN(c2ncnc3cc(C(N)=O)c(F)cc23)CCO1 (stereo not drawn) [Compound 47, 6-fluoro-4-(2-(methylsulfonamidomethyl)morpholino)quinazoline-7-carboxamide] | 5% | 7% | > 100 µM |
| O=S(=O)(NCC1CCCN(c2ncnc3ccc(C(F)(F)F)cc23)C1)C1CCCCC1 (stereo not drawn) [Compound 55, N-((1-(6-(trifluoromethyl)quinazolin-4-yl)piperidin-3-yl)methyl)cyclohexanesulfonamide] | 29% | 41% | 7 µM |
| CC(C)N(CC1CCCN(c2ncnc3ccc(F)cc23)C1)S(=O)(=O)c1ccccc1 (stereo not drawn) [Compound 42, N-((1-(6-fluoroquinazolin-4-yl)piperidin-3-yl)methyl)-N-isopropylbenzenesulfonamide] | 32% | 30% | 4 µM |
| CS(=O)(=O)NCC1(O)CCCN(c2ncnc3cc(F)c(C#N)cc23)C1 (stereo not drawn) [Compound 49, N-((1-(6-cyano-7-fluoroquinazolin-4-yl)-3-hydroxypiperidin-3-yl)methyl)methanesulfonamide] | 2% | 2% | > 100 µM |
| CS(=O)(=O)NCC1CCN(c2ncnc3ccc(F)cc23)CC1 [Compound 44, N-((1-(6-fluoroquinazolin-4-yl)piperidin-4-yl)methyl)methanesulfonamide] | 4% | 22% | > 100 µM |
| CC(NS(C)(=O)=O)C1CCCN(c2ncnc3cc(F)c(F)cc23)C1 (stereo not drawn) [Compound 45, N-(1-(1-(6,7-difluoroquinazolin-4-yl)piperidin-3-yl)ethyl)methanesulfonamide] | 22% | 44% | > 100 µM |
| CS(=O)(=O)NCC1CCCN(c2ncnc3ccc(S(C)(=O)=O)cc23)C1 (stereo not drawn) [Compound 14, N-((1-(6-(methylsulfonyl)quinazolin-4-yl)piperidin-3-yl)methyl)methanesulfonamide] | 0% | 24% | > 100 µM |
| CS(=O)(=O)NCC1CCCN(c2ncnc3cc(F)c(C(F)(F)F)cc23)C1 (stereo not drawn) [Compound 30, N-((1-(7-fluoro-6-(trifluoromethyl)quinazolin-4-yl)piperidin-3-yl)methyl)methane-sulfonamide] | 9% | 33% | > 100 µM |
| CS(=O)(=O)NCC1CCCN(c2ncnc3cc(F)ccc23)C1 (stereo not drawn) [Compound 4, N-((1-(7-fluoroquinazolin-4-yl)piperidin-3-yl)methyl)methanesulfonamide] | 24% | 16% | > 100 µM |
| CS(=O)(=O)NCC1CCCN(c2ncnc3cccc(Cl)c23)C1 (stereo not drawn) [Compound 6, N-((1-(5-chloroquinazolin-4-yl)piperidin-3-yl)methyl)methanesulfonamide] | 29% | 43% | > 100 µM |
| CS(=O)(=O)NCC1CCCN(c2ncnc3cc(C(F)(F)F)ccc23)C1 (stereo not drawn) [Compound 12, N-((1-(7-(trifluoromethyl)quinazolin-4-yl)piperidin-3-yl)methyl)methanesulfonamide] | 0% | 13% | > 100 µM |
| Cc1cc2ncnc(N3CCCC(CNS(C)(=O)=O)C3)c2cc1F (stereo not drawn) [Compound 22, N-((1-(6-fluoro-7-methylquinazolin-4-yl)piperidin-3-yl)methyl)methanesulfonamide] | 15% | 34% | > 100 µM |
| CS(=O)(=O)NCC1CCCN(c2ncnc3ccc(F)cc23)C1 (stereo not drawn) [Compound 1, N-((1-(6-fluoroquinazolin-4-yl)piperidin-3-yl)methyl)methanesulfonamide] | 44% | 54% | > 100 µM |
| CS(=O)(=O)NC1CCCN(c2ncnc3ccc(C(F)(F)F)cc23)C1 (stereo not drawn) [Compound 38, N-(1-(6-(trifluoromethyl)quinazolin-4-yl)piperidin-3-yl)methanesulfonamide] | 34% | 60% | > 100 µM |
| CC(C)Nc1nc(N2CCCC(CNS(C)(=O)=O)C2)c2ccccc2n1 (stereo not drawn) [Compound 16, N-((1-(2-(isopropylamino)quinazolin-4-yl)piperidin-3-yl)methyl)methanesulfonamide] | 0% | 33% | > 100 µM |
| CS(=O)(=O)NCC1CCCN(c2ncnc3cc(C(=O)O)ccc23)C1 (stereo not drawn) [Compound 18, 4-(3-(methylsulfonamidomethyl)piperidin-1-yl)quinazoline-7-carboxylic acid] | 10% | 10% | > 100 µM |
| CS(=O)(=O)NC1CN(c2ncnc3ccc(F)cc23)C1 [Compound 52] | 4% | 5% | > 100 µM |
| CS(=O)(=O)NCC1CCCN(c2ncnc3cc(N4CCOCC4)c(F)cc23)C1 (stereo not drawn) [Compound 23, N-((1-(6-fluoro-7-morpholinoquinazolin-4-yl)piperidin-3-yl)methyl)methanesulfonamide] | 0% | 23% | > 100 µM |
| CS(=O)(=O)NCC1CCCN(c2nc(O)nc3ccc(C(F)(F)F)cc23)C1 (stereo not drawn) [Compound 62, N-((1-(2-hydroxy-6-(trifluoromethyl)quinazolin-4-yl)piperidin-3-yl)methyl)methanesulfonamide] | 20% | 20% | > 100 µM |
